Data published in patent US9394295B2, “Antibacterial homopiperidinyl substituted 3,4-dihydro-1H-[1,8]naphthyridinones” (Janssen Sciences Ireland UC, priority 2011, dated 2016).
≈ marks a conversion by molar mass, not a printed value. Like-named read-outs stand apart in the source and are kept apart here.

Legend:
[1] = biological target: T1, S. aureus ATCC 29213 FabI (Staphylococcus aureus, UniProt Q6GI75); assay: Staphylococcus aureus FabI enzyme inhibition assay; type: biochemical; settings: 30 minutes at room temperature, NADH consumption
T1 sequence (Q6GI75 1-256): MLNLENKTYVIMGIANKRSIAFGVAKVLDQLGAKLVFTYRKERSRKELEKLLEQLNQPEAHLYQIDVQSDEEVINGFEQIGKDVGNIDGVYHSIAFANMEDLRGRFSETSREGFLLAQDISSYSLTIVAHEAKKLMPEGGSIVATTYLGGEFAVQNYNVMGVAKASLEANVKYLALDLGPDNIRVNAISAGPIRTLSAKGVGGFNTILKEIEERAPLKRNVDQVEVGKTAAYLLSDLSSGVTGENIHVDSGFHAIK
Description: FabI enzyme inhibition assays were carried out in half-area, 384-well microtitre plates. Compounds were evaluated in 40-μl assay mixtures containing 100 mM NaADA, pH 6.5 (ADA=N-[2-acetamido]-2iminodiacetic acid), 250 μM crotonoyl-CoA, 625 μM NADH and 50 μg/ml S. aureus ATCC 29213 FabI Inhibitors were typically varied over the range of 50 to 0.39 μM. The reaction mixtures were incubated for 30 minutes at room temperature and the reaction was stopped by adding 200 mM Tris buffer (pH 9.0) to create a pH-shift. The consumption of NADH was monitored by measuring the change in absorbance at […]. By comparing sample readings to those of negative (absence of compound) and positive (absence of enzyme) controls, the percent inhibition of enzymatic activity of the compounds was determined. A best-fit curve is fitted by a minimum of squares method. From this an IC50-value (expressed in μg/ml), resulting in 50% inhibition of enzymatic activity, was obtained.

[2] = Cytotoxicity MTT assay (TOX HELAM); type: cell-based; settings: human, HelaM cells, read-out: TOX HELAM (222.125) CC50
Description: Cytotoxicity of the compounds was evaluated using the MTT assay. Human HelaM cells grown in 96-well plates were exposed to serial dilutions of the tested compounds (final volume of 0.2 ml) and incubated for 72 hours at 37° C. and 5% CO2. Inhibitors are typically varied over the range of 25 to 0.8 μM. The final DMSO concentration in the assay is 0.5%. MTT (3-(4,5-Dimethylthiazol-2-yl)-2,5-diphenyltetrazolium bromide, a tetrazole) was added and reduced to purple formazan only in living cells. Solubilization of the formazan crystals was achieved by adding 100 μl 2-propanol. Cell viability was determined by measuring the absorbance of the reduced formazan, giving a purple color, at 540 nm and 690 nm. The absorbance measured at 690 nm was automatically subtracted from the absorbance at 540 nm, to eliminate the effects of non-specific absorption. The percent cytotoxicity achieved by the compounds was calculated according to standard methods. Cytotoxicity is reported as CC50, the concentration that causes a 50% reduction in cell viability.
The results are depicted in the table D2 below (TOX HELAM).

H. influenza ATCC 49247 = assay: MIC broth microdilution (CLSI), H. influenza ATCC 49247; type: cell-based; settings: Haemophilus influenzae, ATCC49247, HTM broth
Description: (§1) Minimum Inhibitory Concentrations (MICs) were determined in accordance with the Clinical and Laboratory Standards Institute (CLSI) methodology against aerobic bacteria (CLSI M07-A8) (see Clinical and Laboratory Standards Institute. 2009. Methods for dilution antimicrobial susceptibility tests for bacteria that grow aerobically. CLSI document M07-A8, Vol. 29, No. 2.) by the broth microdilution method with cation-adjusted Mueller-Hinton broth (CA-MHB) medium for the majority of organisms, except for Haemophilus influenza, where Haemophilis test medium (HTM) broth was used. Descriptions of the individual organisms can be found in the table. Where possible, ATCC standard strains were tested.
(§2) The inoculum density for the susceptibility testing was standardized to give a final inoculum of approximately 5×10^5 CFU/mL.
(§3) Stock solutions of the compounds were prepared in DMSO at concentrations of 1 mg/mL. Linezolid was prepared in DMSO at a concentration of 2 mg/mL. Stock solutions of all compounds were diluted into CA-MHB to give a range of two-fold dilutions, depending upon the sensitivity of the organism being tested.

M. catarrhalis ATCC 8176 = assay: MIC broth microdilution (CLSI), M. catarrhalis ATCC 8176; type: cell-based; settings: Moraxella catarrhalis, ATCC8176
Description: as §1, §2, §3

[3] = In vivo pharmacokinetic and oral bioavailability; settings: male Swiss mice; for half-life: read-out: Half life (t1/2) (converted)
Description: The in vivo pharmacokinetics and oral bioavailability of the compound of the examples was/is investigated in male Swiss mice (fed) following single intravenous (i.v.) bolus and oral (p.o.) administration. For the i.v. and p.o. solution formulations, the compound was/is dissolved in a 20% HP-β-CD solution. The pH of the formulations was/is around pH 4. All i.v. formulations were isotonic.

[4] = mouse, plasma, iv, i.v. 2.5 mg/kg
[5] = mouse, plasma, po, p.o. 10 mg/kg

Row | Compound | IC50 [1] [nM] | CC50 at 72 h [2] [µg/mL] | MIC90 (H. influenza ATCC 49247) [µg/mL] | MIC90 (M. catarrhalis ATCC 8176) [µg/mL] | Vdz ([3]; i.v. 2.5 mg/kg) [L/kg] | AUC(0-inf) [3, 4] [ng·h/mL] | C0 ([3]; mouse, plasma, iv, i.v. 2.5 mg/kg, 20% HP-β-CD solution) [ng/mL] | half-life [3, 4] [h] | clearance ([3]; mouse, plasma, iv, i.v. 2.5 mg/kg, read-out: Plasma clearance Cl (converted)) [mL/min/kg] | bioavailability ([3]; mouse, plasma, po, p.o. 10 mg/kg vs i.v. 2.5 mg/kg) [%] | AUC(0-inf) [3, 5] [ng·h/mL] | Tmax [3, 5] [h] | Cmax ([3]; mouse, plasma, po, p.o. 10 mg/kg, 20% HP-β-CD solution) [ng/mL] | half-life [3, 5] [h]
1 | O=C1CCc2cc(/C=C/C(=O)N3CCC=C(c4ccccc4)CC3)cnc2N1 [Co. No. 2] | 884 | > 9.38 | – | – | – | – | – | – | – | – | – | – | – | –
2 | COc1ccc(F)cc1C1=CCCN(C(=O)/C=C/c2cnc3c(c2)CCC(=O)N3)CC1 [Co. No. 27] | 1070 | > 10.6 | > 8 | 1 (≈ 2.37 µM) | 1.2 | 3560 | 3350 | 1.1 | 12.5 | 89 | 12600 | 0.5 | 4640 | 2
